Source: US8562949B2, “Radiolabeled dihydrotetrabenazine derivatives and their use as imaging agents” (The Trustees of the University of Pennsylvania, priority 2006, dated 2013)
Where two headings read alike, the source gives them in different places.

Experiments:
[1] = Biodistribution of [18F]FP-6b in normal mice (Table 4); assay type: in vivo, ICR mice; conditions: iv
Experimental: After anesthetizing ICR mice (22-25 g male) with isoflurane, 0.15 mL of a 0.1% bovine serum albumin solution containing [^18F]FP-(+)-6b (10-20 μCi) was injected directly into the tail vein. The mice (n=3 for each time point) were sacrificed by cervical dislocation (under isoflurane anesthesia) at indicated time-points post-injection. The organs of interest were removed and weighed, and the radioactivity was counted with an automatic gamma counter. The percentage dose per organ was calculated by a comparison of the tissue counts to suitably diluted aliquots of the injected material. The total activity of the blood was calculated under the assumption that it was 7% of the total body weight. The % does/g of samples was calculated by comparing the sample counts with the count of the diluted initial dose.

[2] = Blocking of pancreatic signal by DTBZ in rats; assay type: in vivo; conditions: rat
VMAT-2 = tested on: T1, VMAT-2; assay: Blocking of pancreatic signal by DTBZ in rats; assay type: in vivo; conditions: rat
T1 construct: from tissue; host or cells: living rats; organs dissected after iv injection

VMAT2 sites = VMAT2 sites (Mus musculus, UniProt Q8BRU6); conditions: lesioned mice
VMAT2 = VMAT2 (Rattus norvegicus, UniProt Q01827); assay: Blocking of pancreatic signal by DTBZ in rats; assay type: in vivo; design: from tissue; host or cells: living rats; organs dissected after iv injection; conditions: 30 min, DTBZ 3.8 mg/kg pretreatment
VMAT2, sequence (Q01827 whole entry): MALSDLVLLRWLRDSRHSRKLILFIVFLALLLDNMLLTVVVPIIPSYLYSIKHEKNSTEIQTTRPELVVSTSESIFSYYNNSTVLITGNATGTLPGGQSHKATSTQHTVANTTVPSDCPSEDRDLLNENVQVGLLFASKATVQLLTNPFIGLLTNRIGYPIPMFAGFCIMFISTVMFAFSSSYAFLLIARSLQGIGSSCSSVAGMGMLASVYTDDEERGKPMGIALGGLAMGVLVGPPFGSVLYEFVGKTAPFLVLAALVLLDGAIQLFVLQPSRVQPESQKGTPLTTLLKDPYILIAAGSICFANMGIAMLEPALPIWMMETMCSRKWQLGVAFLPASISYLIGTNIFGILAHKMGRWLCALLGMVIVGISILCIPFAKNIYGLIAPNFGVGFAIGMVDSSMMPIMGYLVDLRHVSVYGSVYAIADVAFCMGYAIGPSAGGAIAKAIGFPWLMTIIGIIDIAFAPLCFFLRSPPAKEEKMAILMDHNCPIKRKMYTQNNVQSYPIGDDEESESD

VMAT2 sites, sequence (Q8BRU6 whole entry): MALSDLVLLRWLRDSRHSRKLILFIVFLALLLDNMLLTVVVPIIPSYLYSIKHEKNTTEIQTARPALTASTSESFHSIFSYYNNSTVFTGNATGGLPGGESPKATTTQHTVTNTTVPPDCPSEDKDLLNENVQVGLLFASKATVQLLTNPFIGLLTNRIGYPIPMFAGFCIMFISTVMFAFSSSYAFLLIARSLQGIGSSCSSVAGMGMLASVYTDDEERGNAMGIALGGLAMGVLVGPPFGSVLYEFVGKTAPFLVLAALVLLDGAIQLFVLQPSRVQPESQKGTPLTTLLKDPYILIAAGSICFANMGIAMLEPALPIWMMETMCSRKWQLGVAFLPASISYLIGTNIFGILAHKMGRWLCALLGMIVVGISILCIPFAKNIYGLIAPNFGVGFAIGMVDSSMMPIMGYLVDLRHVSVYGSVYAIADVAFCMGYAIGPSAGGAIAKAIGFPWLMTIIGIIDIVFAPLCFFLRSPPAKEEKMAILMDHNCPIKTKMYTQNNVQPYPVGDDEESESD

Organ distribution Blood ([1]; 2 min): 2.12 ± 0.17 % dose/g | Organ distribution Bone ([1]; 2 min): 1.95 ± 0.30 % dose/g | Organ distribution Brain ([1]; 2 min): 4.82 ± 0.86 % dose/g | Organ distribution Heart ([1]; 2 min): 5.47 ± 1.19 % dose/g | Organ distribution Kidney ([1]; 2 min): 10.7 ± 2.02 % dose/g | Organ distribution Liver ([1]; 2 min): 24.6 ± 1.37 % dose/g | Organ distribution Lung ([1]; 2 min): 9.04 ± 4.71 % dose/g | Organ distribution Muscle ([1]; 2 min): 0.78 ± 0.11 % dose/g | Organ distribution Skin ([1]; 2 min): 1.05 ± 0.12 % dose/g | Organ distribution Spleen ([1]; 2 min): 7.38 ± 1.62 % dose/g | Ratio (vs CB) Cortex ([1]; 2 min): 0.97 | Ratio (vs CB) Hippocampus ([1]; 2 min): 0.97 | Ratio (vs CB) Hypothalamus ([1]; 2 min): 1.37 | Ratio (vs CB) Remainder ([1]; 2 min): 1.01 | Ratio (vs CB) Striatum ([1]; 2 min): 1.56 | Regional brain distribution Cerebellum (CB) ([1]; 2 min): 4.67 ± 0.74 % dose/g | Regional brain distribution Cortex ([1]; 2 min): 4.54 ± 0.66 % dose/g | Regional brain distribution Hippocampus ([1]; 2 min): 4.54 ± 0.72 % dose/g | Regional brain distribution Hypothalamus ([1]; 2 min): 6.41 ± 1.11 % dose/g | Regional brain distribution Remainder ([1]; 2 min): 4.71 ± 0.74 % dose/g | Regional brain distribution Striatum ([1]; 2 min): 7.28 ± 0.80 % dose/g | Organ distribution Blood ([1]; 30 min): 1.73 ± 0.15 % dose/g | Organ distribution Bone ([1]; 30 min): 4.88 ± 1.43 % dose/g | Organ distribution Brain ([1]; 30 min): 2.05 ± 0.37 % dose/g | Organ distribution Heart ([1]; 30 min): 2.43 ± 0.22 % dose/g | Organ distribution Kidney ([1]; 30 min): 5.81 ± 1.15 % dose/g | Organ distribution Liver ([1]; 30 min): 22.2 ± 1.98 % dose/g | Organ distribution Lung ([1]; 30 min): 3.17 ± 0.33 % dose/g | Organ distribution Muscle ([1]; 30 min): 1.10 ± 0.12 % dose/g | Organ distribution Skin ([1]; 30 min): 1.42 ± 0.03 % dose/g | Organ distribution Spleen ([1]; 30 min): 3.69 ± 0.25 % dose/g | Ratio (vs CB) Cortex ([1]; 30 min): 1.34 | Ratio (vs CB) Hippocampus ([1]; 30 min): 1.59 | Ratio (vs CB) Hypothalamus ([1]; 30 min): 3.52 | Ratio (vs CB) Remainder ([1]; 30 min): 1.45 | Ratio (vs CB) Striatum ([1]; 30 min): 4.51 | Regional brain distribution Cerebellum (CB) ([1]; 30 min): 1.41 ± 0.23 % dose/g | Regional brain distribution Cortex ([1]; 30 min): 1.88 ± 0.63 % dose/g | Regional brain distribution Hippocampus ([1]; 30 min): 2.23 ± 0.59 % dose/g | Regional brain distribution Hypothalamus ([1]; 30 min): 4.95 ± 0.84 % dose/g | Regional brain distribution Remainder ([1]; 30 min): 2.04 ± 0.28 % dose/g | Regional brain distribution Striatum ([1]; 30 min): 6.34 ± 1.01 % dose/g | Organ distribution Blood ([1]; 60 min): 0.97 ± 0.04 % dose/g | Organ distribution Bone ([1]; 60 min): 9.22 ± 0.48 % dose/g | Organ distribution Brain ([1]; 60 min): 1.10 ± 0.32 % dose/g | Organ distribution Heart ([1]; 60 min): 1.67 ± 0.02 % dose/g | Organ distribution Kidney ([1]; 60 min): 3.48 ± 0.34 % dose/g | Organ distribution Liver ([1]; 60 min): 14.5 ± 0.91 % dose/g | Organ distribution Lung ([1]; 60 min): 2.00 ± 0.05 % dose/g | Organ distribution Muscle ([1]; 60 min): 0.73 ± 0.04 % dose/g | Organ distribution Skin ([1]; 60 min): 1.06 ± 0.04 % dose/g | Organ distribution Spleen ([1]; 60 min): 2.11 ± 0.05 % dose/g | Ratio (vs CB) Cortex ([1]; 60 min): 1.00 | Ratio (vs CB) Hippocampus ([1]; 60 min): 1.32 | Ratio (vs CB) Hypothalamus ([1]; 60 min): 2.71 | Ratio (vs CB) Remainder ([1]; 60 min): 1.45 | Ratio (vs CB) Striatum ([1]; 60 min): 4.74 | Regional brain distribution Cerebellum (CB) ([1]; 60 min): 0.89 ± 0.01 % dose/g | Regional brain distribution Cortex ([1]; 60 min): 0.89 ± 0.11 % dose/g | Regional brain distribution Hippocampus ([1]; 60 min): 1.18 ± 0.12 % dose/g | Regional brain distribution Hypothalamus ([1]; 60 min): 2.42 ± 0.52 % dose/g | Regional brain distribution Remainder ([1]; 60 min): 1.30 ± 0.08 % dose/g | Regional brain distribution Striatum ([1]; 60 min): 4.24 ± 0.78 % dose/g | Organ distribution Blood ([1]; 2 hr): 0.57 ± 0.09 % dose/g | Organ distribution Bone ([1]; 2 hr): 12.7 ± 1.84 % dose/g | Organ distribution Brain ([1]; 2 hr): 0.68 ± 0.11 % dose/g | Organ distribution Heart ([1]; 2 hr): 0.91 ± 0.14 % dose/g | Organ distribution Kidney ([1]; 2 hr): 2.28 ± 0.34 % dose/g | Organ distribution Liver ([1]; 2 hr): 9.81 ± 0.94 % dose/g | Organ distribution Lung ([1]; 2 hr): 1.26 ± 0.13 % dose/g | Organ distribution Muscle ([1]; 2 hr): 0.53 ± 0.05 % dose/g | Organ distribution Skin ([1]; 2 hr): 0.67 ± 0.06 % dose/g | Organ distribution Spleen ([1]; 2 hr): 1.40 ± 0.35 % dose/g | Ratio (vs CB) Cortex ([1]; 2 hr): 0.96 | Ratio (vs CB) Hippocampus ([1]; 2 hr): 1.09 | Ratio (vs CB) Hypothalamus ([1]; 2 hr): 1.90 | Ratio (vs CB) Remainder ([1]; 2 hr): 1.15 | Ratio (vs CB) Striatum ([1]; 2 hr): 3.28 | Regional brain distribution Cerebellum (CB) ([1]; 2 hr): 0.54 ± 0.09 % dose/g | Regional brain distribution Cortex ([1]; 2 hr): 0.51 ± 0.02 % dose/g | Regional brain distribution Hippocampus ([1]; 2 hr): 0.58 ± 0.15 % dose/g | Regional brain distribution Hypothalamus ([1]; 2 hr): 1.02 ± 0.11 % dose/g | Regional brain distribution Remainder ([1]; 2 hr): 0.62 ± 0.10 % dose/g | Regional brain distribution Striatum ([1]; 2 hr): 1.76 ± 0.33 % dose/g | Organ distribution Blood ([1]; 4 hr): 0.06 ± 0.02 % dose/g | Organ distribution Bone ([1]; 4 hr): 3.49 ± 0.35 % dose/g | Organ distribution Brain ([1]; 4 hr): 0.16 ± 0.03 % dose/g | Organ distribution Heart ([1]; 4 hr): 0.12 ± 0.01 % dose/g | Organ distribution Kidney ([1]; 4 hr): 0.31 ± 0.02 % dose/g | Organ distribution Liver ([1]; 4 hr): 1.58 ± 0.08 % dose/g | Organ distribution Lung ([1]; 4 hr): 0.19 ± 0.01 % dose/g | Organ distribution Muscle ([1]; 4 hr): 0.06 ± 0.01 % dose/g | Organ distribution Skin ([1]; 4 hr): 0.09 ± 0.01 % dose/g | Organ distribution Spleen ([1]; 4 hr): 0.17 ± 0.02 % dose/g | Ratio (vs CB) Cortex ([1]; 4 hr): 0.87 | Ratio (vs CB) Hippocampus ([1]; 4 hr): 0.99 | Ratio (vs CB) Hypothalamus ([1]; 4 hr): 1.15 | Ratio (vs CB) Remainder ([1]; 4 hr): 1.02 | Ratio (vs CB) Striatum ([1]; 4 hr): 1.11 | Regional brain distribution Cerebellum (CB) ([1]; 4 hr): 0.41 ± 0.02 % dose/g | Regional brain distribution Cortex ([1]; 4 hr): 0.36 ± 0.02 % dose/g | Regional brain distribution Hippocampus ([1]; 4 hr): 0.41 ± 0.01 % dose/g | Regional brain distribution Hypothalamus ([1]; 4 hr): 0.47 ± 0.01 % dose/g | Regional brain distribution Remainder ([1]; 4 hr): 0.42 ± 0.05 % dose/g | Regional brain distribution Striatum ([1]; 4 hr): 0.46 ± 0.13 % dose/g | tissue uptake at 30 min ([2]; blood, 30 min Blocking, DTBZ 3.8 mg/kg pretreatment, read-out: Blood): 0.32 ± 0.04 %ID/g | tissue uptake at 30 min ([2]; blood, 30 min Control, read-out: Blood): 0.2 ± 0.01 %ID/g | tissue uptake at 30 min ([2]; cortex, 30 min Blocking, DTBZ 3.8 mg/kg pretreatment, read-out: Regional Brain Distribution Cortex): 0.26 ± 0.05 %ID/g | tissue uptake at 30 min ([2]; cortex, 30 min Control, read-out: Regional Brain Distribution Cortex): 0.36 %ID/g | tissue uptake at 30 min ([2]; hippocampus, 30 min Blocking, DTBZ 3.8 mg/kg pretreatment, read-out: Regional Brain Distribution Hippocampus): 0.25 ± 0.03 %ID/g | tissue uptake at 30 min ([2]; hippocampus, 30 min Control, read-out: Regional Brain Distribution Hippocampus): 0.54 ± 0.03 %ID/g | tissue uptake at 30 min ([2]; hypothalamus, 30 min Blocking, DTBZ 3.8 mg/kg pretreatment, read-out: Regional Brain Distribution Hypothalamus): 0.25 ± 0.04 %ID/g | tissue uptake at 30 min ([2]; hypothalamus, 30 min Control, read-out: Regional Brain Distribution Hypothalamus): 1.2 ± 0.07 %ID/g | tissue uptake at 30 min ([2]; striatum, 30 min Blocking, DTBZ 3.8 mg/kg pretreatment, read-out: Regional Brain Distribution Striatum): 0.27 ± 0.02 %ID/g | tissue uptake at 30 min ([2]; striatum, 30 min Control, read-out: Regional Brain Distribution Striatum): 1.94 ± 0.03 %ID/g | tissue uptake at 30 min (VMAT-2; cerebellum, 30 min Blocking, DTBZ 3.8 mg/kg pretreatment, read-out: Regional Brain Distribution Cerebellum): 0.25 ± 0.03 %ID/g | tissue uptake at 30 min (VMAT-2; cerebellum, 30 min Control, read-out: Regional Brain Distribution Cerebellum): 0.36 %ID/g | tissue uptake at 30 min (VMAT-2; pancreas, 30 min Blocking, DTBZ 3.8 mg/kg pretreatment, read-out: Pancreas): 3.1 ± 0.3 %ID/g | tissue uptake at 30 min (VMAT-2; pancreas, 30 min Control, read-out: Pancreas): 4.39 ± 0.64 %ID/g | correlation (r) of lesioned-site uptake with [125I]IPT data (VMAT2 sites): 0.95 | Blocking, Pancreas (VMAT2): 30% | Blocking, Striatum (VMAT2): > 90%
SMILES: COc1cc2c(cc1OCCC[18F])CCN1C[C@@H](CC(C)C)[C@H](O)C[C@H]21 [[^18F]-(+)-6b]
